This note sets out measurements from ChEMBL document CHEMBL5604062, “ASAP - ZIKV NS2B-NS3 protease fluorescence dose response” (2024).

Several values for one entry are separate records, joined by “and”; a condition that tells them apart may be missing. Equal values may be shown once.

This test deals with Nonstructural protein 3 (Zika virus, UniProt A0A024AXB9). As to the kind of experiment: Functional biochemical assay to identify treatments for viral infectious disease that targets Zika NS2B-NS3 protease. Utilizing a direct enzyme activity measurement method, reading the fluorescence intensity is used to characterize the relative potency of inhibitors as IC50. More on the design: species or system PRVABC59.
Sequence of Nonstructural protein 3 (A0A024AXB9 whole entry): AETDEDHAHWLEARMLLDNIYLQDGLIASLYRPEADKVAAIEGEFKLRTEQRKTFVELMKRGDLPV
In the case of `O=C(Nc1cc(Cl)cc(C(=O)Nc2ccc3c(c2)CNC3)c1)OCc1ccccc1`, the IC50 (as a rule, the point on the concentration scale where inhibition reaches its midpoint) was < 2.49 µM and 0.175 µM and 0.19 µM. Compound `NCc1nccc(NC(=O)c2cc(Cl)cc(NC(=O)OCc3ccccc3)c2)n1` gave a concentration for half-maximal inhibition (IC50) greater than 99.5 µM. `CCn1cc(C(=O)Nc2ccccc2)nc(N2CC[C@@H](CO)C2)c1=O` registered an IC50 greater than 99.5 µM. Take `NCc1cccc(NC(=O)c2cc(F)cc(NC(=O)OCc3ccccc3)c2F)c1`: the midpoint of inhibition, the IC50, lay at 74.4 µM. In other words, the double-digit micromolar range. In turn, `c1cnc2c(c1)CC[C@@H]2NCc1n[nH]c2ccccc12` returned an IC50 greater than 99.5 µM. As to `C[C@@H](Cc1c[nH]c2ccccc12)N1CCC(c2nc3ccccc3s2)CC1`, the half-inhibitory concentration (IC50) is greater than 99.5 µM. As for `O=C(Nc1cc(Cl)cc(C(=O)Nc2cccc(C3CCNCC3)c2)c1)OCc1ccccc1`, the concentration for half-maximal inhibition (IC50) is 13.2 µM and 12.5 µM. Compound `COc1ccc(C)cc1S(=O)(=O)N[C@@H](C(=O)Nc1cccc(CN)c1)c1ccc(OCc2ccccc2)cc1` displayed a half-inhibitory concentration (IC50) of 54.6 µM. `NCc1cccc(NC(=O)[C@@H](NS(=O)(=O)CCc2ccccc2)c2ccc(OCc3ccccc3)cc2)c1` returned a 50% inhibitory concentration (IC50) of 34 µM. As to `NC1(c2cccc(NC(=O)c3cc(Cl)cc(NC(=O)OCc4ccccc4)c3)c2)CCC1`, the IC50 is greater than 99.5 µM.

The compound `Cc1ccc(-c2nc(NC(=O)[C@H](NC(=O)OCc3ccccc3)c3ccc(OCc4ccccc4)cc3)sc2CN(C)C)cc1` yielded an IC50 greater than 99.5 µM. In turn, `CN(C)Cc1cc(NC(=O)c2cc(Cl)cc(NC(=O)OCc3ccccc3)c2)sn1` showed a concentration for half-maximal inhibition (IC50) greater than 99.5 µM. `Cn1ccc(-c2n[nH]cc2CN2CCC(c3nc4ccccc4s3)CC2)n1`: the IC50 is greater than 99.5 µM. In turn, `NCc1cccc(NC(=O)c2cc(Cl)cc(CN)c2)c1` registered an IC50 of less than 2.49 µM. On to `NCc1cccc(NC(=O)[C@H](NC(=O)OCc2ccccc2)C2CCNCC2)c1`, for which the IC50 was greater than 99.5 µM. Regarding `NCc1cc(S(=O)(=O)Nc2ccc(Cl)cc2C(=O)O)ccc1Oc1ccccc1`, the 50% inhibitory concentration (IC50) was greater than 99.5 µM. For `O=C(O)c1cc(Cl)cc(Cl)c1S(=O)(=O)Nc1ccc(Oc2ccccc2Cl)cc1`, the IC50 was greater than 99.5 µM.

In turn, `CCNC(=O)c1cn(CC)c(=O)c(N2CC[C@@H](CO)C2)n1` displayed an IC50 greater than 99.5 µM. Compound `NCc1cccc(NC(=O)[C@H](NC(=O)OCc2ccccc2)c2cccc(OCC3CCOCC3)c2)c1` showed an IC50 greater than 99.5 µM.

Turning to `O=C(O)c1cc(Cl)ccc1NS(=O)(=O)c1ccc(-c2cscn2)cc1`, half-maximal inhibition (IC50) required 43.1 µM.

Compound `C[C@H]1CN(C(=O)c2cccc3c(CN)cccc23)CCC12CCNCC2` had an IC50 greater than 99.5 µM.

Take `CN1CCc2nc(NC(=O)c3cc(Cl)cc(NC(=O)OCc4ccccc4)c3)sc2C1`: the 50% inhibitory concentration (IC50) was greater than 99.5 µM.

`CCn1nccc1S(=O)(=O)N[C@@H](C(=O)Nc1cccc(CN)c1)c1ccc(OCc2ccccc2)cc1` showed a concentration for half-maximal inhibition (IC50) greater than 99.5 µM. Turning to `O=C(O)c1cc(Cl)ccc1S(=O)(=O)N[C@H]1CC[C@@H](Oc2cnccn2)CC1`, the IC50 is greater than 99.5 µM. As for `COc1ncccc1S(=O)(=O)N[C@H](C(=O)Nc1cccc(CN)c1)c1ccc(OCc2ccccc2)cc1`, the IC50 is greater than 99.5 µM.

The compound `Cn1ccc(CS(=O)(=O)N[C@@H](C(=O)Nc2cccc(CN)c2)c2ccc(OCc3ccccc3)cc2)n1` displayed an IC50 greater than 99.5 µM. With `COC(=O)[C@H](NC(=O)OC(C)(C)C)c1ccc(-c2csc(C)c2)cc1`, the IC50 is greater than 99.5 µM. As to `CC1=NN(c2ccc(NS(=O)(=O)c3ccc(Cl)cc3C(=O)O)cn2)C(=O)C1`, the 50% inhibitory concentration (IC50) was greater than 99.5 µM.

Compound `c1cncc(CC2CN(Cc3n[nH]c4ccccc34)C2)c1` came in with an IC50 greater than 99.5 µM.

`O=C(Nc1cc(Cl)cc(C(=O)Nc2cccc(CC3CCNCC3)c2)c1)OCc1ccccc1` registered a half-inhibitory concentration (IC50) greater than 99.5 µM. As for `CS(=O)(=O)c1cc(NC(=O)OCc2ccccc2)cc(C(=O)Nc2cccc(CN)c2)c1`, the concentration for half-maximal inhibition (IC50) is greater than 99.5 µM.

The compound `COC(=O)C1(S(=O)(=O)N[C@H](C(=O)Nc2cccc(CN)c2)c2ccc(OCc3ccccc3)cc2)CCC1` registered a half-maximal inhibitory concentration (IC50) of 98.1 µM.

`c1nc(C2CCN(Cc3n[nH]c4c3CCC4)CC2)cs1` had an IC50 greater than 99.5 µM. On to `CCC1([C@H](NC(=O)OCc2ccccc2)C(=O)NCc2cccc(CN)c2)CCCCC1`, for which the 50% inhibitory concentration (IC50) was greater than 99.5 µM. On to `NCCc1ccc(NC(=O)c2cc(Cl)cc(NC(=O)OCc3ccccc3)c2)cc1`, for which the half-maximal inhibitory concentration (IC50) amounted to 10.7 µM. For the compound `Cc1cc(NS(=O)(=O)c2ccc(Cl)cc2C(=O)O)nn1Cc1ccccc1`, the IC50 is greater than 99.5 µM. With `CC(C)(C)OC(=O)NCc1cccc(NC(=O)c2cc(N)cc(Cl)c2)c1`, the IC50 is greater than 99.5 µM. Compound `Cc1c(NC(=O)OCc2ccccc2)cc(C(=O)Nc2cccc(CN)c2)cc1C(F)(F)F` came in with a half-inhibitory concentration (IC50) greater than 99.5 µM. Compound `c1nc(C2CCN(Cc3n[nH]c4c3COCC4)CC2)cs1` displayed an IC50 greater than 99.5 µM. The compound `COc1ccc([C@@H](CC(=O)Nc2cccc(CN)c2)NC(=O)OCc2ccccc2)cc1Br` came in with an IC50 of 93.9 µM.

Compound `COC(=O)c1n[nH]cc1CN1CCC(c2nc3ccccc3s2)CC1` had an IC50 greater than 99.5 µM. In turn, `O=C(O)c1cc(Cl)ccc1S(=O)(=O)Nc1ccc(CN2CCCCC2)cc1` displayed a half-inhibitory concentration (IC50) greater than 99.5 µM. As for `CC(C)c1cc(S(=O)(=O)N[C@H](C(=O)Nc2cccc(CN)c2)c2ccc(OCc3ccccc3)cc2)on1`, the IC50 is greater than 99.5 µM. `Cc1nc(CCCNCc2n[nH]c3ccccc23)cs1` yielded an IC50 greater than 99.5 µM.

`NCc1cccc(NC(=O)[C@@H](NS(=O)(=O)c2ccccn2)c2ccc(OCc3ccccc3)cc2)c1` showed an IC50 greater than 99.5 µM. Next, `c1ccc2sc(C3CCN(CCc4c[nH]c5ccccc45)CC3)nc2c1`: greater than 99.5 µM.

Regarding `NC[C@H]1CC[C@H](NC(=O)c2cc(Cl)cc(NC(=O)OCc3ccccc3)c2)CC1`, the 50% inhibitory concentration (IC50) was greater than 99.5 µM.

The compound `NCc1cccc(NC(=O)[C@@H]2CCC[C@H](NC(=O)OCc3ccccc3)C2)c1` returned an IC50 greater than 99.5 µM.

With `Cn1nc2c(c1NC(=O)c1cc(Cl)cc(NC(=O)OCc3ccccc3)c1)CNC2`, the IC50 is greater than 99.5 µM. In turn, `c1ccc2c(CN[C@H]3CCc4ncsc4C3)n[nH]c2c1` displayed an IC50 greater than 99.5 µM. Consider `NCc1cc(S(=O)(=O)Nc2ccc(Cl)cc2C(=O)NCC(F)(F)F)ccc1Oc1ccccc1`, for which the concentration for half-maximal inhibition (IC50) was greater than 99.5 µM. The compound `O=C(O)c1cc(Cl)ccc1S(=O)(=O)NC1CCN(S(=O)(=O)c2cccs2)CC1` displayed an IC50 greater than 99.5 µM.

As to `NCCNC(=O)c1cc(Cl)cc(NC(=O)OCc2ccccc2)c1`, the half-inhibitory concentration (IC50) is greater than 99.5 µM. For `NC1CCN(C(=O)c2cc(Cl)cc(NC(=O)OCc3ccccc3)c2)CC1`, the concentration for half-maximal inhibition (IC50) was greater than 99.5 µM.

In turn, `c1ccc(-c2ncc(CN3CCC(c4nc5ccccc5s4)CC3)[nH]2)cc1` registered a half-inhibitory concentration (IC50) greater than 99.5 µM.

Compound `C[C@@H](N)c1ccc(NC(=O)c2cc(Cl)cc(NC(=O)OCc3ccccc3)c2)cc1` registered an IC50 of 14.6 µM. `CC1(C)CNC[C@H](C(=O)Nc2cccc(CN)c2)C1`: the IC50 is greater than 99.5 µM. Take `CCn1cc(C(=O)N2CCN(C)CC2)nc(N2CC[C@@H](CO)C2)c1=O`: the 50% inhibitory concentration (IC50) was greater than 99.5 µM. For the compound `O=C(O)c1cc(Cl)ccc1S(=O)(=O)Nc1ccc(S(=O)(=O)Nc2ccccc2)cc1`, the concentration for half-maximal inhibition (IC50) was greater than 99.5 µM. Compound `c1cc(CN2CCC(c3cscn3)CC2)[nH]n1` registered a half-inhibitory concentration (IC50) greater than 99.5 µM. Compound `O=C(O)c1cc(Cl)ccc1S(=O)(=O)N[C@H]1CC[C@H](Oc2cnccn2)CC1` had a concentration for half-maximal inhibition (IC50) greater than 99.5 µM. For `NCc1cccc(NC(=O)[C@H](NS(=O)(=O)c2cccnc2)c2ccc(OCc3ccccc3)cc2)c1`, the IC50 was greater than 99.5 µM. With `NCc1cccc(NC(=O)[C@H](NC(=O)OCc2ccccc2)c2cccc(OCc3ncccn3)c2)c1`, the 50% inhibitory concentration (IC50) is greater than 99.5 µM. Next, `CCn1c(=O)c(N2CCC[C@H]2c2nncs2)nc2ccccc21`: greater than 99.5 µM; `Cc1cc(CN(C)C)cc(NC(=O)[C@H](NC(=O)OCc2ccccc2)c2ccc(OCc3ccccc3)cc2)c1`: greater than 99.5 µM.

For the compound `NCc1cccc(NC(=O)c2cc(NC(=O)OCc3ccccc3)cc(Cl)c2Cl)c1`, the IC50 was determined as 43.9 µM. Compound `CCn1nc(-c2ccccc2)cc1NS(=O)(=O)c1ccc(Cl)cc1C(=O)O` returned an IC50 of 29.6 µM. On to `C[C@H]1CNC[C@H](C(=O)Nc2cccc(CN)c2)C1`, for which the IC50 is greater than 99.5 µM. The compound `Cc1nn(C)cc1S(=O)(=O)N[C@@H](C(=O)Nc1cccc(CN)c1)c1ccc(OCc2ccccc2)cc1` yielded a concentration for half-maximal inhibition (IC50) greater than 99.5 µM.

As to `Cn1ccc(Nc2ccc(S(=O)(=O)Nc3ccc(Cl)cc3C(=O)O)cn2)n1`, the IC50 was greater than 99.5 µM.

As to `Cn1ccnc1S(=O)(=O)N[C@@H](C(=O)Nc1cccc(CN)c1)c1ccc(OCc2ccccc2)cc1`, the IC50 is greater than 99.5 µM.

On to `CC1(N2CCC(NS(=O)(=O)c3ccc(Cl)cc3C(=O)O)CC2)CCCCC1`, for which the half-maximal inhibitory concentration (IC50) was greater than 99.5 µM. With `NCc1cccc(NC(=O)[C@@H](NS(=O)(=O)c2ccccc2F)c2ccc(OCc3ccccc3)cc2)c1`, the IC50 came out at 99 µM. The figure for `c1ccc2c(CN[C@H]3CCc4c([nH]c5ccccc45)C3)n[nH]c2c1` is greater than 99.5 µM. In turn, `CCS(=O)(=O)N[C@@H](C(=O)Nc1cccc(CN)c1)c1ccc(OCc2ccccc2)cc1` yielded an IC50 greater than 99.5 µM. `CN(C(=O)c1cc(Cl)cc(NC(=O)OCc2ccccc2)c1)c1ccc(CN)cc1` gave an IC50 greater than 99.5 µM.

In the case of `CC(=O)N1CCC[C@H]1C(=O)N[C@@H](C(=O)Nc1cccc(CN)c1)c1ccc(OCc2ccccc2)cc1`, the 50% inhibitory concentration (IC50) is greater than 99.5 µM.

In turn, `CC(C)N1CCc2nc(NC(=O)[C@H](NC(=O)OCc3ccccc3)c3ccc(OCc4ccccc4)cc3)sc2C1` registered an IC50 greater than 99.5 µM. The figure for `Cn1nccc1CN1CCC(NS(=O)(=O)c2ccc(Cl)cc2C(=O)O)CC1` is greater than 99.5 µM; for `N#Cc1ccccc1O[C@H]1CC[C@H](NS(=O)(=O)c2ccc(Cl)cc2C(=O)O)CC1` it is greater than 99.5 µM.

`NCc1cccc(NC(=O)[C@@H]2C[C@H](NC(=O)OCc3ccccc3)[C@H]3C[C@H]32)c1` came in with an IC50 greater than 99.5 µM.

As for `NCc1cccc(NC(=O)[C@H](NS(=O)(=O)C[C@H]2COCCO2)c2ccc(OCc3ccccc3)cc2)c1`, the IC50 is greater than 99.5 µM. The figure for `Cc1csc(COc2cccc([C@H](NC(=O)OCc3ccccc3)C(=O)Nc3cccc(CN)c3)c2)n1` is 29.8 µM. The figure for `Cc1[nH]c2ccccc2c1CN1CCC(c2nc3ccccc3s2)CC1` is 2.89 µM.

For the compound `C[C@H]1CC[C@H](CS(=O)(=O)N[C@H](C(=O)Nc2cccc(CN)c2)c2ccc(OCc3ccccc3)cc2)CC1`, the IC50 came to 15.4 µM. Next, `NCc1cccc(NC(=O)[C@H](NC(=O)OCc2ccccc2)c2cccc(OCc3ccccn3)c2)c1`: greater than 99.5 µM; `NCc1ccc(Oc2ccc(S(=O)(=O)Nc3ccc(Cl)cc3C(=O)O)cc2)cc1`: greater than 99.5 µM.
